# Assay results as given in US20250041387A1, “POLYPEPTIDE SEQUENCE OF KDM6B AND APPLICATION OF KDM6B IN REGULATING AND CONTROLLING FUNCTION OF MESENCHYMAL STEM CELL” (BEIJING STOMATOLOGICAL HOSPITAL, CAPITAL MEDICAL UNIVERSITY, priority 2021, published 2025).
# What was measured:
# WDR5 synthetic protein = WDR5 synthetic protein (Homo sapiens, UniProt P61964); test: Polypeptide microarray of KDM6B incubated with biotin-labeled WDR5; format: binding; conditions: FIG. 3A, B; positive = optical density more than 30%
# Source text: • (1) Synthesis of polypeptide chip: A polypeptide chip was designed by overlapping and synthesized according to the sequence of KDM6B protein, with a total of two arrays. • (2) Synthesis of polypeptide microarray: A matrix membrane was activated, and placed on a fully automated polypeptide chip synthesizer. A Fmoc-amino acid solution was automatically transferred to a specific position on the activated membrane according to the set procedure, to react with the membrane. The membrane was immersed sequentially into the blocking solution I and II to block side chains, and washed with dimethyl formamide (DMF). The membrane was placed in a deprotection solution to remove the Fmoc protective group at the amino-terminal, then washed with DMF, and dried with ethanol. The above steps were repeated until all polypeptide microarrays were completely synthesized. After the synthesis was completed, the protective groups of the side chains were removed with specific organic reagents. […] The control group was incubated with the blocking solution. • (6) Streptavidin-HRP incubation: The reaction reagent Streptavidin-HRP (High Sensitivity Streptavidin-HRP (prod #21133)) was diluted with the blocking solution in an ratio of 1:10000, and then the polypeptide microarray chip was incubated with 5 ml of the diluted Streptavidin-HRP under shaking at room temperature for 2 hours, and washed. • (7) Color development: ECL luminescence reagent was added, and digital imaging was performed on a Chempchemi digital imager. • (8) Scan of polypeptide microarray chip and data analysis of color spot: The colored polypeptide microarray chip was imaged at 425 nm using the Chempchemi Imaging System with 200 s exposure. The optical density of colored spots was analyzed using TotalLab image analysis software, and the optical density of each colored spot was calculated using the “Spot Edge Average” algorithm in the software, with the optical density of the surrounding background of each colored spot as a reference. […]
# [1] = tested on: senescent bone marrow mesenchymal stem cells; test: β-gal staining in senescent BMSCs of aged mice; format: cell-based, C57BL/6 mice; conditions: FIG. 5A
# Experimental: Prior to the start of the experiment, the GENMED staining solution (Reagent E) in the kit was taken out of the refrigerator at −20° C., and thawed in an ice bath. Then 9.5 mL of GENMED dilution (Reagent D) was added into a 15 ml conical centrifuge tube, added with 500 μL of GENMED staining solution (Reagent E), mixed well, and then preheated in a 37° C. thermostatic sink. The obtained mixture was labeled as GENMED staining working solution.
# [2] = tested on: stem cells from apical papilla; test: ALP activity of SCAPs after odontogenic induction; format: cell-based, human; conditions: SCAPs treated with polypeptide, 3 days of odontogenic induction, FIG. 8E
# Experimental: • (1) Osteogenic culture medium was purchased from Invitrogen, USA. • (2) Quantification of alkaline phosphatase (ALP) activity • 1) After 3 days of osteogenic induction, the culture medium was discarded, and the cells were washed with PBS twice. • 2) The cells were added with 500 μL of lysis buffer, and incubated at 37° C. for 15 minutes. • 3) The cells were scraped, transferred into a 1.5 mL EP tube, and centrifuged at 14000 rpm at 4° C. for 10 minutes. The supernatant was transferred into a new EP tube to measure the protein concentration, and the procedure was the same as that in Western blot. • 4) The capsule from the alkaline phosphatase kit (Stock substrate Sol.) was dissolved with 5 mL of distilled water under vigorous shaking, and mixed well. • 5) 50 μL of ALP buffer was added to 50 μL of Stock substrate Sol to obtain a mixture. 100 μL of the mixture was added to each well in a 96-well plate, then added with 10 μL of sample, and mixed well. A blank well without sample added was set for zero adjustment. • 6) The plate was incubated at 37° C. for 15 minutes, and the OD value was measured at 405 nm.
# Result of ALP activity was calculated according to Y/incubation time/protein concentration. • (3) Alizarin red staining • 1) After two weeks of osteogenic induction, the culture medium was discarded. The cells were washed three times with PBS pre-cooled at 4° C., and fixed with 70% ethanol at 4° C. for 1 hour. • 2) The cells were washed 2 times with double distilled water, and stained with 40 mM alizarin red solution (pH 4.2) at room temperature for 10 minutes. The staining was observed by naked eyes. • 3) The cells were washed 3 times with double-distilled water. • (4) Determination of Ca^2+ concentration
# [3] = target: KDM6B/WDR5 protein complex (Homo sapiens, UniProt P61964); test: Co-IP of KDM6B/WDR5 complex in stem cells from apical papilla; format: cell-based; set-up: endogenous in cells; host or cells: stem cells from apical papilla (SCAPs); conditions: SCAPs treated with polypeptide, compared to control group; FIG. 8A
# Experimental: Protein was extracted from cells of knockout group and overexpression group using IP lysate. The knockout group cells SCAPs-Scramsh and SCAPs-KDM6Bsh, SCAPs-Scramsh and SCAPs-WDR5sh, BMSCs-Scramsh and BMSCs-WDR5sh were added with KDM6B antibody, WDR5 antibody, and IgG antibody, respectively, and then rotated on a shaker at 4° C. overnight. On the next day, the cells were added with Protein A/G beads and rotated on a rotary shaker at 4° C. for 2 hours. A complex of protein-antibody-agarose bead was formed, and the formation of a protein complex of KDM6B and WDR5WB was detected by WB. The overexpression group cells SCAPs-Vector, SCAPs-HA-KDM6B, SCAPs-HA-KDM6B-mut102, and SCAPs-HA-KDM6B-mut114 were added with ProteinA/G beads with HA antibody, and cells SCAPs Vector and SCAPs-Myc-WDR5 were added with ProteinA/G beads with Myc antibody. All cells were incubated overnight to form a complex of protein-antibody-agarose bead. The formation of a protein complex of KDM6B and WDR5 was detected by WB method. • (2) Grouping: Input group (loading amount of 25 μg); antibody group (loading amount of 800 μg, 2 μg of antibody); IgG group (loading amount of 800 μg, 2 μg of antibody). Samples were diluted with lysate. • (3) Preparation of protein A/G beads
# The protein A/G beads were washed 4 times with PBS, and centrifuged at 2000 g for 2 minutes. […]
Substance,binding degree to WDR5 on polypeptide microarray (optical density of spots) (WDR5 synthetic protein),number of β-gal positive cells [1],ALP activity [2],ALP activity ([2]; listed as 114 peptide),binding of KDM6B to WDR5 (Co-IP) [3],ALP activity ([2]; listed as 102peptide)
FITC-(Acp)-ADLTISHCAADVVRAYGRKKRRQRRR [peptide 114],higher binding degree,significant reduction,promoted,0.7238,reduced,–
FITC-(Acp)-KEKSRRVLGNLDLQSYGRKKRRQRRR [peptide 102],higher binding degree,significant reduction,promoted,–,reduced,0.3961
